In the test the test system is wHTel-26 (DNA, G4) TTAGGGTTAGGGTTAGGGTTAGGGTT
Nature of the test: CD melting. The following applies: 100 mM KCl; 10 mM phosphate, 1 mM EDTA, pH 7.0; 20 µM DNA, D/N 5.0.

This passage reports Tm results from article PMC9720492 (2022).

Turning to `CCN(CC)CCC(=O)Nc1ccc2c(c1)C(=O)c1ccc(NC(=O)CCN(CC)CC)cc1C2=O`, the Tm is 10–13 (±2) °C.
